Experimental data: ChEMBL document CHEMBL4622868, “Design and synthesis of amphiphilic 2-hydroxybenzylphosphonium salts with antimicrobial and antitumor dual action” (Bioorg Med Chem Lett, 2020)
The source made the active and inactive calls. No cut-off for these calls is given here.

Experiments:
[1] = Selectivity index, ratio of IC50 for human Chang cells to IC50 for human HepG2 cells
[2] = test system: Staphylococcus aureus; assay: Antibacterial activity against Staphylococcus aureus ATCC 209p; type: functional
[3] = Hemolytic activity against RBC (unknown origin) at 1 uM; type: ADME, cell-based, Erythrocyte; conditions: red blood cells (erythrocytes); read-out: Activity
[4] = Selectivity index, ratio of IC50 for human Chang cells to IC50 for human PANC1 cells
[5] = test system: Staphylococcus aureus; assay: Bactericidal activity against clinical isolate amoxicillin and ciprofloxacin resistance Staphylococcus aureus; type: functional
[6] = Hemolytic activity against RBC (unknown origin) at 10 uM; type: ADME, cell-based, Erythrocyte; conditions: red blood cells (erythrocytes); read-out: Activity
[7] = Hemolytic activity against RBC (unknown origin) at 40 uM; type: ADME, cell-based, Erythrocyte; conditions: red blood cells (erythrocytes); read-out: Activity
[8] = test system: Candida albicans; assay: Antifungal activity against Candida albicans; type: functional
[9] = test system: Candida albicans; assay: Fungicidal activity against Candida albicans; type: functional
[10] = Cytotoxicity against human Chang cells; type: cell-based
[11] = test system: HepG2; assay: Cytotoxicity against human HepG2 cells; type: functional, cell-based; conditions: read-out: IC50
[12] = test system: Bacillus cereus; assay: Antibacterial activity against Bacillus cereus; type: functional
[13] = Hemolytic activity against RBC (unknown origin) at 20 uM; type: ADME, cell-based, Erythrocyte; conditions: red blood cells (erythrocytes); read-out: Activity
[14] = test system: M-HeLa; assay: Cytotoxicity against human M-HeLa cells; type: functional, cell-based
[15] = test system: Bacillus cereus; assay: Bactericidal activity against Bacillus cereus; type: functional
[16] = test system: Trichophyton mentagrophytes; assay: Antifungal activity against Trichophyton mentagrophytes; type: functional
[17] = Selectivity index, ratio of IC50 for human Chang cells to IC50 for human MCF7 cells
[18] = Selectivity index, ratio of IC50 for human Chang cells to IC50 for human M-HeLa cells
[19] = Hemolytic activity against RBC (unknown origin) at 480 uM; type: ADME, cell-based, Erythrocyte; conditions: red blood cells (erythrocytes); read-out: Activity
[20] = Hemolytic activity against RBC (unknown origin) at 240 uM; type: ADME, cell-based, Erythrocyte; conditions: red blood cells (erythrocytes); read-out: Activity
[21] = test system: Staphylococcus aureus; assay: Bactericidal activity against clinical isolate amoxicillin resistance Staphylococcus aureus; type: functional
[22] = test system: Staphylococcus aureus; assay: Antibacterial activity against clinical isolate amoxicillin resistance Staphylococcus aureus; type: functional
[23] = test system: Staphylococcus aureus; assay: Bactericidal activity against Staphylococcus aureus ATCC 209p; type: functional
[24] = test system: MCF7; assay: Cytotoxicity against human MCF7 cells; type: functional, cell-based
[25] = test system: Trichophyton mentagrophytes; assay: Fungicidal activity against Trichophyton mentagrophytes; type: functional
[26] = Hemolytic activity against RBC (unknown origin) at 5 uM; type: ADME, cell-based, Erythrocyte; conditions: red blood cells (erythrocytes); read-out: Activity
[27] = test system: PANC-1; assay: Cytotoxicity against human PANC1 cells; type: functional, cell-based
[28] = Hemolytic activity against RBC (unknown origin) at 60 uM; type: ADME, cell-based, Erythrocyte; conditions: red blood cells (erythrocytes); read-out: Activity
[29] = Hemolytic activity against RBC (unknown origin) at 120 uM; type: ADME, cell-based, Erythrocyte; conditions: red blood cells (erythrocytes); read-out: Activity
[30] = test system: Staphylococcus aureus; assay: Antibacterial activity against Staphylococcus aureus ATCC 209p assessed as increase in crystal violet uptake at 2 uM incubated for 30 mins (reference value: 1.8 %); type: functional
[31] = test system: Staphylococcus aureus; assay: Antibacterial activity against clinical isolate amoxicillin and ciprofloxacin resistance Staphylococcus aureus; type: functional

Row | SMILES | Ratio IC50 [1] | MIC [2] [µM] | hemolysis at 1 µM [3] [%] | Ratio IC50 [4] | MBC [5] | hemolysis at 10 µM [6] [%] | hemolysis at 40 µM [7] [%] | MIC [8] [µM] | MFC [9] | IC50 [10] [µM] | IC50 [11] [µM] | MIC [12] [µM] | hemolysis at 20 µM [13] [%] | IC50 [14] [µM] | MBC [15] [µM] | MIC [16] [µM] | Ratio IC50 [17] | Ratio IC50 [18] | hemolysis at 480 µM [19] [%] | hemolysis at 240 µM [20] [%] | further results
1 | CCCCCCCCCC[P+](Cc1ccccc1O)(c1ccccc1)c1ccccc1.[Cl-] | 3.7 | 1 | 0 | 1.7 | 32.8 µM | 0.8 | 2.3 | 16.6 | 16.6 µM | 45.7 | 12.3 | 1.9 | 1.3 | 3.4 | 4.1 | 16.6 | 3.5 | 13.4 | 16.4 | 9.6 | MBC [21]: 16.4 µM; MIC [22]: 8.2 µM; MBC [23]: 4.1 µM; IC50 [24]: 13.2 µM; MFC [25]: 16.6 µM; hemolysis at 5 µM [26]: 0%; IC50 [27]: 26.3 µM; hemolysis at 60 µM [28]: 2.8%; hemolysis at 120 µM [29]: 5.9%; Activity [30]: 24 - 82.7%; MIC [31]: 8.2 µM
2 | CCCCCCCCCCCCCCCC[P+](Cc1ccccc1O)(c1ccccc1)c1ccccc1.[Cl-] | 3.6 | 3.4 | 0.3 | 1.8 | inactive | 0.9 | 2.5 | 56.6 | inactive | 45.2 | 12.6 | 14.1 | 2.1 | 3.2 | 452 | 56.6 | 3.4 | 14.1 | 100 | 100 | MBC [21]: 113 µM; MIC [22]: 14.1 µM; MBC [23]: 28.2 µM; IC50 [24]: 13.2 µM; MFC [25]: inactive; hemolysis at 5 µM [26]: 0.3%; IC50 [27]: 25.7 µM; hemolysis at 60 µM [28]: 98%; hemolysis at 120 µM [29]: 100%; MIC [31]: 28.2 µM
